Assay results as given in patent US8937167B2 (Washington University, priority 2009, dated 2015).
“Also recorded” adds a separate entry of the source.

Experiments:
[1] = molecular target: T1, FimH lectin domain (residues 1-158 of UPEC J96 FimH) (Escherichia coli, UniProt P08191); assay type: binding; conditions: Table 20; compound at 100 μM
T1 construct: made in house
Description: DSF measures the melting temperature change of protein when binding to small molecules. Melting temperature shifts are proportional to the free energy of binding, and melting temperatures increase even as ligand concentration exceeds the Kd.
FimH lectin domain (residues 1-158 of UPEC J96 FimH, without an affinity tag) was purified as described previously. Five micrograms FimH in 5 μl HBS were mixed with HBS to yield a final volume of 50 μl containing compound at a final concentration of 100 μM and a “5×” final concentration of SYPRO Orange (sold as a “5000×” stock in DMSO and mixed with HBS to a working stock of 50× immediately before use: Life Technologies Inc.; Grand Island, N.Y.). Compounds were diluted to 100 μM from stocks in DMSO and compared to matched control wells with FimH alone plus 0.2% DMSO. 50 μl reactions were placed in 96-well clear-bottom PCR plates and subjected to a melt curve from 20-90° C. in 0.5° C. increments of 15 seconds each followed by a fluorescence read of the “HEX” channel in a Bio-Rad CFX96 thermocycler (Bio-Rad, Hercules, Calif.). Melt curves were fitted to the Boltzmann equation to determine the melting temperature (Tm) (y=A2+(A1−A2)/(1+exp((x−x0)/dx)) where x0 is the Tm) using OriginPro 8 (OriginLab, Northampton Mass.).

UTI89 [2] = test: Ex vivo gentamicin protection assay of infected mouse bladders (luminal vs intracellular bacteria); assay type: in vivo, E. coli (UPEC); host mouse; conditions: IP 5 mg/kg pretreatment; 6 hpi
Description: Based on the extensive elucidation of the UPEC pathogenic cascade, critical nodes in pathogenesis that mannosides would target and thereby have powerful and potent therapeutic ramifications were identified. The first step in the UPEC pathway involves FimH-mediated colonization of the bladder epithelium via the recognition of mannose receptors. Bacterial invasion into superficial bladder umbrella cells can then ensue. […] To test this, a well-established gentamicin protection assay that allows the determination of the luminally bound fraction versus the intracellular fraction was utilized (FIG. 10). […] This may be due to contamination from bacteria in the urine or bacteria that are non-specifically associated with the epithelium. In any case, blocking invasion blocks the ability of the bacteria to rapidly expand in numbers. This is due to the ability of the mannosides to block the IBC mechanism.
Gentamicin protection assay. To enumerate bacteria present in the intracellular versus extracellular compartments, bladders were aseptically harvested at 6 hpi. The bladders were then bisected twice and washed three times in 500 μl of PBS each. The wash fractions were pooled, lightly spun at 500 rpm for 5 min to pellet exfoliated bladder cells, serially diluted, and plated onto LB agar to obtain the luminal fraction. The bladders were treated with 100 μg of gentamicin/ml for 90 min at 37° C. After treatment, the bladders were washed twice with PBS to eliminate residual gentamicin, homogenized in 1 ml of PBS, serially diluted, and plated onto LB agar to enumberate the CFUs in the intracellular fraction.
To enumerate bacteria present in the intracellular versus extracellular compartments, bladders were aseptically harvested at 6 hpi. The bladders were then bisected twice and washed three times in 500 μl of PBS each. The wash fractions were pooled, lightly spun at 500 rpm for 5 min to pellet exfoliated bladder cells, serially diluted, and plated onto LB agar to obtain the luminal fraction. The bladders were treated with 100 μg of gentamicin/ml for 90 min at 37° C. […]

UTI89 [3] = test: Mouse UTI model, bladder bacterial titers (CFU); assay type: in vivo, E. coli (UPEC); host C3H/HeN mouse; conditions: UTI89; 6 hpi; mannoside IP 30 min prior and/or TMP-SMZ 3 days in drinking water
Description: For mannoside treatment, bacteria were incubated with 1 mM ZFH56 prior to inoculation. Every 24 h for 3 days, mice were transurethrally inoculated with 1 mM ZFH56. For antibiotic treatment, mice were inoculated with UTI89 and immediately given antibiotics in the drinking water for 3 days. Antibiotics used were trimethoprim-sulfamethoxazole (SXT) at […], respectively. For dual treatment, bacteria were incubated with 1 mM ZFH56 prior to inoculation. Every 24 h for 3 days, mice were transurethrally inoculated with 1 mM ZFH56. Additionally, mice were immediately given antibiotics in the drinking water for 3 days as in the antibiotic only treatment. Urine was collected every day for 13 days. At 2 weeks, mice were sacrificed and bladders were titered.
UTI89 biofilm was grown in LB+/− mannoside for 24 h at 22° C. in PVC plates and quantitated using crystal violet. UTI89 biofilm for confocal microscopy was grown in LB for 24 h at 22° C. on PVC coverslips. Mannoside was then added and biofilm was grown for an additional 16 h. Coverslips were then washed in PBS, fixed in 2% paraformaldehyde and stained with SYTO9 prior to confocal microscopy. For all animal experiments UTI89 or PBC-1 was grown 2×24 h statically in LB at 37° C. and inoculated at a dose of 1×10^7 bacteria in 50 μl. All mice used were female C3H/HeN (Jackson). For the pretreatment studies, bacteria were incubated with mannoside for 20 min prior to inoculation into the mouse. […] For CFU counts, bladders were harvested at 6 hpi and placed in 1 mL PBS. Bladders were then homogenized, diluted and plated on LB. After growth at 37° C. overnight, bacterial counts were determined. LacZ staining and gentamicin protection assays were performed at 6 hpi. […] Water was changed daily with fresh antibiotics. Standard growth curve assays and hemagglutination assays were performed with TMP-SMZ. All statistical analysis performed was a two-tailed Mann-Whitney U test.
Animal infections. Bacteria were grown under type 1 pili-inducing conditions (2×24 h at 37° C. statically in LB). The bacteria were harvested and resuspended to an OD600 of 0.5 in PBS. Eight-week-old C3H/HeN (Harlan) female mice were anesthetized by inhalation of isoflurane and infected via transurethral catheterization with 50 μl of the bacterial suspension, resulting in 1-2×10^7 inoculum. At 6 hpi, mice were sacrificed by cervical dislocation under anesthesia and the bladders were immediately harvested and processed as described below. All animal studies using mice were approved by the Animal Studies Committee of Washington University (Animal Protocol Number 20100002).
Bladder tissue bacterial titer determination. Mannoside ZFH-2056 was administered either IP (5 mg/kg) or orally (100 mg/kg) 30 min prior to inoculation with UTI89. […]

T1 sequence (P08191 22-179): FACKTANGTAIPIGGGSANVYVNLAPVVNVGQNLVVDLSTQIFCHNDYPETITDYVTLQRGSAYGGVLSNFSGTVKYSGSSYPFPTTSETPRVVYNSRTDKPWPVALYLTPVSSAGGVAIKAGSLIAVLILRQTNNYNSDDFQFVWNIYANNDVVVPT

| Structure (SMILES) | DSF Melting Temp. [1] | intracellular bacteria (CFUs after gentamicin treatment) (UTI89 [2]) | luminal bacteria (UTI89 [2]) | bladder bacterial CFUs (UTI89 [3]) |
| --- | --- | --- | --- | --- |
| COC(=O)c1cccc(-c2ccc(O[C@H]3O[C@H](CO)[C@@H](O)[C@H](O)[C@@H]3O)cc2)c1 [Compound 1, phenyl mannoside, reference compound] | 73.39 °C |  |  |  |
| CNC(=O)c1cc(C(=O)NC)cc(-c2ccc(O[C@H]3O[C@H](CO)[C@@H](O)[C@H](O)[C@@H]3O)cc2)c1 [ZFH-2056] |  | eliminated all CFUs; also recorded: significantly reduced | significantly reduced | significant drop in bacterial load |
